Experimental data: PMC8535469, “Insight into the Binding and Hydrolytic Preferences of hNudt16 Based on Nucleotide Diphosphate Substrates” (International Journal of Molecular Sciences, 2021)
Like-named read-outs stand apart in the source and are kept apart here.

Key:
hNudt16E76Q [1] = target: T1, hNudt16E76Q (Homo sapiens, UniProt Q96DE0, E76Q); test: Thermal stability of hNudt16E76Q with ligands, dye-free nanoDSF; type: binding; settings: for Tm, nanoDSF (Dye-Free) / ∆Tm, nanoDSF (Dye-Free): 5 µM hNudt16E76Q, 20 mM MgCl2, 0.5 mM ligand; for ∆Tm, nanoDSF (Dye-Free): relative to apo
T1 construct: 4xHis (four added histidines); made in house; host or cells: E. coli Rosetta 2 (DE3), pET16b
T1 sequence (Q96DE0 whole entry E76Q): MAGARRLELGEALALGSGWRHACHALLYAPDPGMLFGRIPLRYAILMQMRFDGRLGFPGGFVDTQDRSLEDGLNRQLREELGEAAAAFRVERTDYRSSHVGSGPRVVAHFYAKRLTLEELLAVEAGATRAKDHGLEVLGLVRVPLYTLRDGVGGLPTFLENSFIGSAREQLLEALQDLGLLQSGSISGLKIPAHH
Description: (§1) Protein thermal stability in the presence of various ligands was measured using two DSF methods: assays with SYPRO orange dye and dye-free assays. DSF assays with SYPRO orange dye were performed at specific ligand concentrations for each protein–ligand pair. This measurement was performed as described in Section 4.6.1, with a constant MgCl2 concentration of 20 mM and a concentration of the tested ligand maintained at 0.5 mM. DSF dye-free measurements were performed using a Prometheus NT.48 nanoDSF device (NanoTemper Technologies, München, Germany). The composition of the samples was identical to that in the DSF with SYPRO orange dye measurements, without the addition of any dye. […] The measurements were performed at a single ligand concentration for all ligands. After 10 min of pre-incubation, the samples were loaded into standard capillaries (NanoTemper Technologies, München, Germany). […] We fitted the melting temperatures (Tm) globally for at least three independent experiments (but separately for different DSF methods).

hNudt16E76Q [2] = target: T1, hNudt16E76Q; test: Thermal stability of hNudt16E76Q with ligands, DSF with SYPRO Orange; type: binding; settings: 5 µM hNudt16E76Q, 20 mM MgCl2, 0.5 mM ligand, 4× SYPRO Orange; for ∆Tm, DSF (with SYPRO Orange): relative to apo
Description: The protein thermal stability of wild-type hNudt16 and all tested mutants in the presence of increasing Mg^2+ ion concentration was measured using DSF with SYPRO orange dye on CFX RT-PCR (Bio-Rad, Hercules, CA, USA). This method is based on the change in fluorescence of the SYPRO orange dye in an aqueous buffer, which is strongly quenched, while its binding to the exposed hydrophobic regions of thermally unfolded protein results in an increased fluorescence. The optimal concentrations of protein, SYPRO orange dye, and buffer composition, in particular ion content, were determined. The samples were prepared and measured in clear 96-well multiplate PCR plates for RT-PCR (Bio-Rad, Hercules, CA, USA). […] The individual components of the solution were added in equal volumes to each well, with a final sample volume of 25 μL/well. The samples were gently mixed, and the 96-well plate was covered with optically clear PCR sealing tape (Bio-Rad, Hercules, CA, USA) to prevent evaporation. […] The data processing procedure was performed using Bio-Rad CFX Manager (version 1.6.541.1028), and melting point temperatures were calculated as the minimum of the first derivative plot.
as §1

hNudt16E76Q [3] = target: T1, hNudt16E76Q; test: Microscale thermophoresis (MST) binding, two independent binding sites model; settings: for ΔGdiss1 (for Kd1): calculated as −RTlnKd from MST Kd1; for ΔGdiss2 (for Kd2): calculated as −RTlnKd from MST Kd2
Description: Binding constants for protein–ligand pairs were established using the MST method. The hNudt16 E76Q was labeled with RED-tris-NTA 2nd Generation dye (Monolith HIS-tag labeling Kit, NanoTemper Technologies, München, Germany) according to the manufacturer’s instructions. Measurements were carried out in a wide range of ligand concentrations, selected after preliminary tests for each of the ligands. The results obtained were used to determine of binding parameters for a given ligand. Each MST measurement consisted of a series of 16 serial 1:2 dilutions of the ligand, and was performed at a constant dye-labeled protein concentration of 50 nM. After 10 min of pre-incubation, dye-labeled protein–ligand samples were manually loaded into Monolith™ NT.115 Premium Capillaries (NanoTemper Technologies, München, Germany) and analyzed using the Monolith NT.115 (NanoTemper Technologies). […] Analysis was performed using Origin package (OriginLab, Northampton, MA, USA) and dissociation constants were fitted globally for a series of at least six MST pseudo-titration experiments for each ligand. Up to 10 replicates were performed for some ligands.
For the dissociation constants obtained, we also calculated the free energy associated with the dissociation of the complex ΔGdiss according to the equation: ΔGdiss=−RTlnKd.

hNudt16 = hNudt16 (Homo sapiens, UniProt Q96DE0); test: Enzymatic hydrolysis catalyzed by hNudt16, products quantified by HPLC; type: biochemical; design: 4xHis (four added histidines); made in house; settings: 20 µM substrate, 37 °C; for Hydrolysis Products / Hydrolysis Rate, v/[E]0 (hydrolyzed substrate per minute per [enzyme] µM) / Hydrolysis Rate, v/µg (hydrolyzed substrate per minute per enzyme µg): pH 7.9, 6 mM MgCl2, nd = hydrolysis products not detected; for Susceptibility to hydrolysis by hNudt16 (in words): HPLC
Sequence of hNudt16 (Q96DE0 whole entry): as the sequence (Q96DE0 whole entry E76Q) above, with Q76E counted along it
Description: Enzymatic hydrolysis catalyzed by hNudt16 was performed at 37 °C in 40 mM Tris buffer (pH 7.9) containing 100 mM NaCl, 6 mM MgCl2, and 2 mM DTT. The concentration of the investigated dinucleotides and mononucleotides was 20 µM in the reaction mixture.
The hydrolytic susceptibility of the compounds was studied using HPLC. Before each experiment, 1 mL of buffer solution containing the analyte was incubated at 37 °C for 10 min. The hydrolysis process was initiated by the addition of hNudt16. To analyze the reaction progress, 200-µL aliquots of the reaction mixture were withdrawn and incubated at 96 °C for 5 min to stop the reaction through heat inactivation of the enzyme. The samples were then subjected to an HPLC system (Agilent 1200 series, Agilent Technologies, California, USA) with a reverse-phase Supelcosil LC-18-T column and UV/VIS detector. The substrates and hydrolysis products were eluted at 20 °C with a linear gradient of methanol in 0.1 M KH2PO4 (from 0% to 40%) over 15 min at a flow rate of 1.0 mL/min. Changes in the absorbance at 260 nm were continuously monitored during the analysis. Hydrolysis products were identified by comparing their retention times with those of the reference samples. The extent of decapping, determined as the percentage of the hydrolyzed substrate, was calculated using the area under the chromatographic peak of the respective compounds.

[4] = second, weaker binding site, read-out: Kd2
[5] = stronger binding site, 50 nM dye-labeled protein, read-out: Kd1

Row | Structure (SMILES) | Tm, nanoDSF (Dye-Free) (hNudt16E76Q [1]) [°C] | ∆Tm, nanoDSF (Dye-Free) (hNudt16E76Q [1]) [°C] | Tm, DSF (with SYPRO Orange) (hNudt16E76Q [2]) [°C] | ∆Tm, DSF (with SYPRO Orange) (hNudt16E76Q [2]) [°C] | ΔGdiss1 (for Kd1) (hNudt16E76Q [3]) [kcal/mol] | ΔGdiss2 (for Kd2) (hNudt16E76Q [3]) [kcal/mol] | Kd (hNudt16E76Q [3]; [4]) [µM] | Kd (hNudt16E76Q [3]; [5]) [µM] | Hydrolysis Products (hNudt16) | Hydrolysis Rate, v/[E]0 (hydrolyzed substrate per minute per [enzyme] µM) (hNudt16) | Hydrolysis Rate, v/µg (hydrolyzed substrate per minute per enzyme µg) (hNudt16) [µM/min/µg] | ΔTm relative to the apo form, both DSF and nanoDSF (hNudt16E76Q [1]; 0.5 mM ligand, stated for both types of measurements) | Susceptibility to hydrolysis by hNudt16 (in words) (hNudt16)
1 | CC(C)(COP(=O)(O)OP(=O)(O)OC[C@H]1O[C@@H](n2cnc3c(N)ncnc32)[C@H](O)[C@@H]1O)[C@@H](O)C(=O)NCCC(=O)NCCS [dpCoA, Dephospho-coenzyme A] | 68.1 ± 0.1 | 3.1 ± 0.1 | 67.0 ± 0.1 | 3.3 ± 0.1 | 5.951 | ≤2.481 | ≥ 15000 | 43 | AMP + dpCop | 18.0 ± 1.3 µM/min/[E]0 | 0.75 ± 0.05 | – | –
2 | O=c1[nH]cnc2c1ncn2[C@@H]1O[C@H](COP(=O)(O)OP(=O)(O)O)[C@@H](O)[C@H]1O [IDP, Inosine diphosphate] | 82.9 ± 0.1 | 17.8 ± 0.1 | 81.5 ± 0.1 | 17.8 ± 0.1 | 10.04 | 8.078 | 1.2 ± 0.2 | – | – | – | – | 17.5–18.0 °C | very rapid hydrolysis reaction
3 | Nc1nc2c(ncn2[C@@H]2O[C@H](COP(=O)(O)OP(=O)(O)OP(=O)(O)OC[C@H]3O[C@@H](n4cnc5c(=O)[nH]c(N)nc54)[C@H](O)[C@@H]3O)[C@@H](O)[C@H]2O)c(=O)[nH]1 [GpppG] | 76.0 ± 0.1 | 10.9 ± 0.1 | 74.8 ± 0.1 | 11.0 ± 0.1 | – | – | – | – | – | – | – | – | –
4 | NC(=O)C1=CN([C@@H]2O[C@H](COP(=O)(O)OP(=O)(O)OC[C@H]3O[C@@H](n4cnc5c(N)ncnc54)[C@H](O)[C@@H]3O)[C@@H](O)[C@H]2O)C=CC1 [NADH, Reduced NAD+] | 67.4 ± 0.1 | 2.4 ± 0.1 | 64.9 ± 0.1 | 1.1 ± 0.1 | – | – | – | – | AMP + NMNH | 18.7 ± 1.5 µM/min/[E]0 | 0.78 ± 0.06 | – | –
5 | Nc1ccn([C@@H]2O[C@H](COP(=O)(O)OP(=O)(O)O)[C@@H](O)[C@H]2O)c(=O)n1 [CDP, Cytidine diphosphate] | 66.8 ± 0.1 | 1.66 ± 0.1 | 65.6 ± 0.1 | 1.81 ± 0.1 | – | – | – | – | – | – | – | – | –
6 | NC(=O)c1ccc[n+]([C@@H]2O[C@H](COP(=O)([O-])OP(=O)(O)OC[C@H]3O[C@@H](n4cnc5c(N)ncnc54)[C@H](O)[C@@H]3O)[C@@H](O)[C@H]2O)c1 [NAD, Nicotinamide adenine dinucleotide] | 66.1 ± 0.1 | 1.1 ± 0.1 | 63.7 ± 0.1 | 0.0 ± 0.1 | – | – | – | – | NMN + AMP | 3.4 ± 0.4 µM/min/[E]0 | 0.14 ± 0.02 | – | –
7 | Nc1nc2c(ncn2[C@@H]2O[C@H](COP(=O)(O)OP(=O)(O)O)[C@@H](O)[C@H]2O)c(=O)[nH]1 [GDP, Guanosine diphosphate] | 78.6 ± 0.1 | 13.5 ± 0.1 | 77.0 ± 0.1 | 13.3 ± 0.1 | 8.97 | 5.911 | 45.6 ± 2.4 | 0.258 ± 0.045 | – | – | – | – | –
8 | Cn1c[n+]([C@@H]2O[C@H](COP(=O)(O)OP(=O)([O-])OP(=O)(O)OC[C@H]3O[C@@H](n4cnc5c(=O)[nH]c(N)nc54)[C@H](O)[C@@H]3O)[C@@H](O)[C@H]2O)c2nc(N)[nH]c(=O)c21 [m^7GpppG] | 73.5 ± 0.1 | 8.4 ± 0.1 | 72.3 ± 0.1 | 8.5 ± 0.1 | 8.026 | – | 230 ± 57 | 1.7 | – | – | – | – | –
9 | Nc1ncnc2c1ncn2[C@@H]1O[C@H](COP(=O)(O)OP(=O)(O)OC[C@H]2O[C@@H](n3cnc4c(N)ncnc43)[C@H](O)[C@@H]2O)[C@@H](O)[C@H]1O [AppA] | 66.8 ± 0.1 | 1.7 ± 0.1 | 65.2 ± 0.1 | 1.5 ± 0.1 | 4.192 | – | – | 833 | AMP | 40.8 ± 2.9 µM/min/[E]0 | 1.70 ± 0.12 | – | –
10 | C[n+]1cn([C@@H]2O[C@H](COP(=O)(O)OP(=O)(O)O)[C@@H](O)[C@H]2O)c2nc(N)[nH]c(=O)c21 [m^7GDP, 7-methylguanosine diphosphate] | 66.7 ± 0.1 | 1.6 ± 0.1 | 64.4 ± 0.1 | 0.7 ± 0.1 | – | – | – | – | – | – | – | – | resistant to hydrolytic cleavage
